Where a name gives a salt, the structure may show the parent alone.
System: MDA-MB-435
Assay: In vitro growth inhibition, sensitive parent melanoma cell line
Assay type: cell-based, human
Conditions: read-out: IC50 ± SEM MDA-MB-435, n=3

“(2-(4-Chlorophenyl)-1-(phenylsulfonyl)-1H-imidazol-4-yl)(4-fluorophenyl)methanone [4fb]” and “(4-Fluorophenyl)(2-(4-methoxyphenyl)-1-(phenylsulfonyl)-1H-imidazol-4-yl) methanone [4cb]” are within 1.5-fold of each other in IC50: 50 ± 6 nM for the first, 38 ± 3 nM for the second.

System: not listed separately
Assay: Aqueous solubility, miniaturized shake-flask method with LC-MS/MS
Assay type: physicochemical
Conditions: buffer pH7.0

With COc1cc(C(=O)c2c[nH]c(-c3ccc(N(C)C)cc3)n2)cc(OC)c1OC [5ga, (2-(4-(Dimethylamino)phenyl)-1H-imidazol-4-yl)(3,4,5-trimethoxyphenyl)methanone] the “aqueous solubility, times greater than SMART-1” value was “about 50 times”.

Same assay, conditions: water

In the case of COc1cc(C(=O)c2c[nH]c(-c3ccc(N(C)C)cc3)n2)cc(OC)c1OC [5ga, (2-(4-(Dimethylamino)phenyl)-1H-imidazol-4-yl)(3,4,5-trimethoxyphenyl)methanone], the “aqueous solubility, times greater than SMART-1” value is reported as roughly 10 times.

System: not listed separately
Assay: Body weight during the in vivo efficacy study
Conditions: any of the treatment groups, during the experiment

In the case of COc1ccc(-c2nc(C(=O)c3ccc(F)cc3)c[nH]2)cc1 [5cb, (4-Fluorophenyl)(2-(4-methoxyphenyl)-1H-imidazol-4-yl)methanone], the weight loss is reported as “No significant weight loss”.
With CN(C)/N=N/c1[nH]cnc1C(N)=O [DTIC, dacarbazine, reference compound] the weight loss was “No significant weight loss”.

System: Bovine brain tubulin
Assay: In vitro microtubule polymerization assay
Assay type: biochemical
Conditions: 10 μM compound, absorbance at 340 nm, 15 min, 37°C

For COc1cc(C(=O)c2c[nH]c(-c3ccc(C)cc3)n2)cc(OC)c1OC [5da, (2-(p-Tolyl)-1H-imidazol-4-yl)(3,4,5-trimethoxyphenyl)methanone], the “inhibition of tubulin polymerization” value was “completely inhibited”.

System: three melanoma cell lines and four human prostate cancer cell lines
Assay: In vitro growth inhibition, average of all seven cell lines
Assay type: cell-based
Conditions: from average IC50 values

In the case of O=C(c1ccc(F)cc1)c1c[nH]c(-c2ccc(OCc3ccccc3)cc2)n1 [5jb, (2-(4-(Benzyloxy)phenyl)-1H-imidazol-4-yl)(4-fluorophenyl)methanone], the “fold increase in activity compared with 5kb” value is reported as 440 fold.

For COc1cc(C(=O)c2c[nH]c(-c3ccc(C(F)(F)F)cc3)n2)cc(OC)c1OC [5la, (2-(4-(Trifluoromethyl)phenyl)-1H-imidazol-4-yl)(3,4,5-trimethoxyphenyl)methanone], the “fold decrease of activity compared with compound 5da” value was 12 fold.

Same assay, conditions: read-out: average IC50; average of all seven cell lines, as given in the text

Compared with O=C(c1ccc(F)cc1)c1c[nH]c(-c2ccc(OCc3ccccc3)cc2)n1 [5jb, (2-(4-(Benzyloxy)phenyl)-1H-imidazol-4-yl)(4-fluorophenyl)methanone], COc1ccc(C(=O)n2ccnc2-c2ccccc2)cc1 [5aba, (4-Methoxyphenyl)(2-phenyl-1H-imidazol-1-yl) methanone] is higher in IC50: 75 nM for the first, greater than 10000 nM for the second.

COc1cc(-c2nc(C(=O)c3ccc(F)cc3)c[nH]2)cc(OC)c1OC [5eb, (4-Fluorophenyl)(2-(3,4,5-trimethoxyphenyl)-1H-imidazol-4-yl)methanone] and COc1ccc(C(=O)c2c[nH]c(-c3ccccc3)n2)cc1 [5ab, (4-Methoxyphenyl)(2-phenyl-1 H-imidazol-4-yl)methanone] cannot be ordered by IC50: greater than 10000 nM for the first, greater than 10000 nM for the second.

Going from “(4-Fluorophenyl)(1-(phenylsulfonyl)-2-(p-tolyl)-1H-imidazol-4-yl) methanone [4db]” to COc1cc(C(=O)c2c[nH]c(-c3cc(OC)c(OC)c(OC)c3)n2)cc(OC)c1OC [5ea, (3,4,5-Trimethoxyphenyl)(2-(3,4,5-trimethoxyphenyl)-1H-imidazol-4-yl)methanone], the IC50 rises from 111 nM to greater than 10000 nM.

Going from O=S(=O)(c1ccccc1)n1ccnc1-c1ccccc1 [3a, 2-Phenyl-1-(phenylsulfonyl)-1H-imidazole] to COc1cc(C(=O)c2c[nH]c(-c3ccc(OCc4ccccc4)cc3)n2)cc(OC)c1OC [5ja, (2-(4-(Benzyloxy)phenyl)-1H-imidazol-4-yl)(3,4,5-trimethoxyphenyl)methanone], the IC50 falls from greater than 10000 nM to 7300 nM.

Compared with “(2-(4-(Dimethylamino)phenyl)-1-(phenylsulfonyl)-1H-imidazol-4-yl)(4-fluorophenyl)methanone [4gb]”, “(4-Fluorophenyl)(2-(4-methoxyphenyl)-1-(phenylsulfonyl)-1H-imidazol-4-yl) methanone [4cb]” is 2-fold lower in IC50: 87 nM for the first, 43 nM for the second.

First: O=C(c1cccc(F)c1)c1c[nH]c(-c2ccccc2)n1 [5ag, (3-Fluorophenyl)(2-phenyl-1H-imidazol-4-yl)methanone]
Second: (2-(4-(Dimethylamino)phenyl)-1-(phenylsulfonyl)-1H-imidazol-4-yl)(3, 4, 5-trimethoxyphenyl) methanone [4ga]
The IC50 of the first is higher: greater than 10000 nM for the first, 285 nM for the second.

Cc1cccc(C(=O)c2c[nH]c(-c3ccccc3)n2)c1 [5ai, (2-Phenyl-1H-imidazol-4-yl)(m-tolyl)methanone] and O=S(=O)(c1ccccc1)n1ccnc1-c1ccc(OCc2ccccc2)cc1 [3j, 2-(4-(Benzyloxy)phenyl)-1-(phenylsulfonyl)-1H-imidazole] cannot be ordered by IC50: greater than 10000 nM for the first, greater than 10000 nM for the second.

O=[N+]([O-])c1ccc(-c2nccn2S(=O)(=O)c2ccccc2)cc1 [3x, 2-(4-Nitrophenyl)-1-(phenylsulfonyl)-1H -imidazole] and Cc1ccc(C(=O)c2c[nH]c(-c3ccccc3)n2)cc1 [5ah, (2-Phenyl-1H-imidazol-4-yl)(p-tolyl)methanone] cannot be ordered by IC50: greater than 10000 nM for the first, greater than 10000 nM for the second.

Compared with Cc1ccc(-c2nc(C(=O)c3ccc(F)cc3)c[nH]2)cc1 [5db-HCl, (4-Fluorophenyl)(2-(p-tolyl)-1H-imidazol-4-yl)methanone HCl salt], COc1ccc(C(=O)c2c[nH]c(-c3ccccc3)n2)cc1OC [5ae, (3,4-Dimethoxyphenyl)(2-phenyl-1H-imidazol-4-yl)methanone] is higher in IC50: 172 nM for the first, greater than 10000 nM for the second. The first is the more potent here.

“(2-(3, 4-Dimethoxyphenyl)-1-(phenylsulfonyl)-1H-imidazol-4-yl)(3,4,5-trimethoxyphenyl)methanone [4ha]” and COc1ccc(-c2nc(C(=O)c3cc(OC)c(OC)c(OC)c3)c[nH]2)cc1OC [5ha, (2-(3,4-Dimethoxyphenyl)-1H-imidazol-4-yl)(3,4,5-trimethoxyphenyl)methanone] are within 1.5-fold of each other in IC50: 268 nM for the first, 330 nM for the second.

COc1cc(C(=O)n2ccnc2-c2ccccc2)cc(OC)c1OC [5aaa, (2-Phenyl-1H-imidazol-1-yl)(3,4,5-trimethoxyphenyl) methanone] and COc1cccc(C(=O)c2c[nH]c(-c3ccccc3)n2)c1 [5ac, (3-Methoxyphenyl)(2-phenyl-1H-imidazol-4-yl)methanone] cannot be ordered by IC50: greater than 10000 nM for the first, greater than 10000 nM for the second.

Going from COc1cc(C(=O)c2c[nH]c(-c3ccc(C(F)(F)F)cc3)n2)cc(OC)c1OC [5la, (2-(4-(Trifluoromethyl)phenyl)-1H-imidazol-4-yl)(3,4,5-trimethoxyphenyl)methanone] to “(4-Fluorophenyl)(2-(2-(trifluoromethyl)phenyl)-1H-imidazol-4-yl)methanone [5ib]”, the IC50 rises from 193 nM to greater than 10000 nM.

First: COc1cc(C(=O)c2c[nH]c(-c3ccc(N(C)C)cc3)n2)cc(OC)c1OC [5ga, (2-(4-(Dimethylamino)phenyl)-1H-imidazol-4-yl)(3,4,5-trimethoxyphenyl)methanone]
Second: (2-(4-(Benzyloxy)phenyl)-1-(phenylsulfonyl)-1 H-imidazol-4-yl)(4-fluorophenyl) methanone [4jb]
The IC50 of the first is 2.1-fold higher: 131 nM for the first, 61 nM for the second.
